ChEMBL document CHEMBL3991601, “The target landscape of clinical kinase drugs” (Science, 2017)
Structures can show the parent of a compound that is named as a salt. Active and inactive are the calls of the source. Cut-off read from the data, not from the text of the source, for most assays here: actives have a measured Kd and inactives only a lower limit.

Key:
[1] = biological target: T1, Tyrosine-protein kinase Tec (Homo sapiens, UniProt P42680)
T1 sequence (P42680 whole entry): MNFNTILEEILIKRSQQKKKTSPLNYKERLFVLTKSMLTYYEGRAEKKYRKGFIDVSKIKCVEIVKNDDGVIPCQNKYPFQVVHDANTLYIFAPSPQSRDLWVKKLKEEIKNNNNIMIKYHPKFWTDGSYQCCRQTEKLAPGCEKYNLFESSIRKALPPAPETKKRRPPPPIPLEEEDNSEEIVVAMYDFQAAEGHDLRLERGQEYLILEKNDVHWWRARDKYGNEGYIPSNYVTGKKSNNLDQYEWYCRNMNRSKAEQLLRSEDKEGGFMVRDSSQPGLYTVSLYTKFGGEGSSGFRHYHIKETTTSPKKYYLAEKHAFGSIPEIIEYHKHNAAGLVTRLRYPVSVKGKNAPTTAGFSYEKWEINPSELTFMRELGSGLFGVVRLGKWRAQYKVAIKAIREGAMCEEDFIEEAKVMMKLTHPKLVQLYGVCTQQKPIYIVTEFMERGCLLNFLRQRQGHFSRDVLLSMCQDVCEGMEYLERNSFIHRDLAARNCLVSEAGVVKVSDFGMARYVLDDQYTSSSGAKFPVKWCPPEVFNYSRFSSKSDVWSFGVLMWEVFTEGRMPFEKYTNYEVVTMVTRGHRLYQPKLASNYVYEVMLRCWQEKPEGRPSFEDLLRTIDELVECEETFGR

[2] = biological target: T2, Activin receptor type-1B (Homo sapiens, UniProt P36896)
T2 sequence (P36896 whole entry): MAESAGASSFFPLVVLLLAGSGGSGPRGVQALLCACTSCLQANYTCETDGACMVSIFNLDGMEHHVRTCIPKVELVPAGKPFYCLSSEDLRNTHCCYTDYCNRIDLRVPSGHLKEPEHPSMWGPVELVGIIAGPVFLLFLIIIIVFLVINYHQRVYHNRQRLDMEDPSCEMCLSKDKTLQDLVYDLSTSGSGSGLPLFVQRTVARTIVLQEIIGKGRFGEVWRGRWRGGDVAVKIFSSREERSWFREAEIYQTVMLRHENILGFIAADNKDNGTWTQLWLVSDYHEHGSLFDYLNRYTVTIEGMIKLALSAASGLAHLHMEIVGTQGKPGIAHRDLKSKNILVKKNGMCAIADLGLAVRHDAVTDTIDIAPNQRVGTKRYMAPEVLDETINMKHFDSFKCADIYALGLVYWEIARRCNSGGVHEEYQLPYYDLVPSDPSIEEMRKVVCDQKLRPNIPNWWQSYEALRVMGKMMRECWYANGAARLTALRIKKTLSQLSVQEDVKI

[3] = biological target: Serine/threonine-protein kinase 26 (Homo sapiens, UniProt Q9P289)
Sequence of Serine/threonine-protein kinase 26 (Q9P289 whole entry): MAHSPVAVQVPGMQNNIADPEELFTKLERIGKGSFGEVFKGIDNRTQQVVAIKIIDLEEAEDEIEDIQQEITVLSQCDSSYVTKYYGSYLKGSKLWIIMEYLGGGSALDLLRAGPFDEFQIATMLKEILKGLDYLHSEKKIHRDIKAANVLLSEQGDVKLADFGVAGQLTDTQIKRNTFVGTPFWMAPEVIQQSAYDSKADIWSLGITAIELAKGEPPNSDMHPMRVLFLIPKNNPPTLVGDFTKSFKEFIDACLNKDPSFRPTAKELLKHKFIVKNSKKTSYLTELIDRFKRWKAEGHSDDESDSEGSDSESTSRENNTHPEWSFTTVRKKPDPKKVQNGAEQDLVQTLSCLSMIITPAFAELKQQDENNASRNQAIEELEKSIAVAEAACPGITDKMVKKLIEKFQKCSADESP

[4] = biological target: Mitogen-activated protein kinase 1 (Homo sapiens, UniProt P28482)
Sequence of Mitogen-activated protein kinase 1 (P28482 whole entry): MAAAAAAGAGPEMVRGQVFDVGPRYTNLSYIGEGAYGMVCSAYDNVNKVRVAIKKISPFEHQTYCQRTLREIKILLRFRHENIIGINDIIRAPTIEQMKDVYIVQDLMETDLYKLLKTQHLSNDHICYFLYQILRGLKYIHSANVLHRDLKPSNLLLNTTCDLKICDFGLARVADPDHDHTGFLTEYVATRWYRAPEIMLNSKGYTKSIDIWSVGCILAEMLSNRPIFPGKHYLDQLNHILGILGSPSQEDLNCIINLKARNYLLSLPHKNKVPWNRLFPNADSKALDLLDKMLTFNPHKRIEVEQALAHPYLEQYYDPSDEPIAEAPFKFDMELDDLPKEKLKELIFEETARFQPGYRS

[5] = biological target: T3, ATP-dependent 6-phosphofructokinase, platelet type (Homo sapiens, UniProt Q01813)
T3 sequence (Q01813 whole entry): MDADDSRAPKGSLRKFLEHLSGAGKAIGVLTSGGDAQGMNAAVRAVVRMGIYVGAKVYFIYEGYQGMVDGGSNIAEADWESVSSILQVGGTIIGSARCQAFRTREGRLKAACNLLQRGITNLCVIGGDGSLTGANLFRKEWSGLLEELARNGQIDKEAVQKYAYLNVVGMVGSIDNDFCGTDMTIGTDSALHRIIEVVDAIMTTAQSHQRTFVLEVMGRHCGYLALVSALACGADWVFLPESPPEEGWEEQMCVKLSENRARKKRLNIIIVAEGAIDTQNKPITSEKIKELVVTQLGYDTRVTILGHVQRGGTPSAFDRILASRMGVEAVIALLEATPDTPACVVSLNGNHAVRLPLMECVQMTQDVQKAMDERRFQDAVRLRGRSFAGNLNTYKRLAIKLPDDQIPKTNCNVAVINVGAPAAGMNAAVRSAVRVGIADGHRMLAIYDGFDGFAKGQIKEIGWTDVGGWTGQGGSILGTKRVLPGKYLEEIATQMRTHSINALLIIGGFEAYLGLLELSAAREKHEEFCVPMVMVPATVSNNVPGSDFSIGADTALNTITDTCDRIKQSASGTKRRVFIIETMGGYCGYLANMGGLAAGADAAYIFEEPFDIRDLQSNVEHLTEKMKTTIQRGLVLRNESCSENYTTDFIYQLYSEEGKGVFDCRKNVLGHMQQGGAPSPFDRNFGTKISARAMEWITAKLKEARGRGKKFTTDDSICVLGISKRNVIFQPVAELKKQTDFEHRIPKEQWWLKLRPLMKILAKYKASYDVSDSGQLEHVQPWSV

[6] = biological target: Serine/threonine-protein kinase PAK 2 (Homo sapiens, UniProt Q13177)
Sequence of Serine/threonine-protein kinase PAK 2 (Q13177 whole entry): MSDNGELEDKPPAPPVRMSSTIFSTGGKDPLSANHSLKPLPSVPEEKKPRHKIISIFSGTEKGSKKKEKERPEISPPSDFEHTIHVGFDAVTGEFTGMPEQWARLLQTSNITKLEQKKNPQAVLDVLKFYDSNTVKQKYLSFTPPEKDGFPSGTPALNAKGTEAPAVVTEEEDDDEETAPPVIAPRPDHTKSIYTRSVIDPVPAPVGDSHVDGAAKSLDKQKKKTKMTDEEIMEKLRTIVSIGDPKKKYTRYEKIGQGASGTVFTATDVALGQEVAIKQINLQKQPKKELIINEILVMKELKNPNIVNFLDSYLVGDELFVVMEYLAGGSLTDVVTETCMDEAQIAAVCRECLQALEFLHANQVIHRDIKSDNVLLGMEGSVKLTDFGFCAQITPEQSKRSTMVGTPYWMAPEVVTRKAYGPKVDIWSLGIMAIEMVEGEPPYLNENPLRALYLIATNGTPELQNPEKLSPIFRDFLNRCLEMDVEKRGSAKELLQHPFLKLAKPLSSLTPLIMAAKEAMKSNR

[7] = biological target: Serine/threonine-protein kinase N1 (Homo sapiens, UniProt Q16512)
Sequence of Serine/threonine-protein kinase N1 (Q16512 whole entry): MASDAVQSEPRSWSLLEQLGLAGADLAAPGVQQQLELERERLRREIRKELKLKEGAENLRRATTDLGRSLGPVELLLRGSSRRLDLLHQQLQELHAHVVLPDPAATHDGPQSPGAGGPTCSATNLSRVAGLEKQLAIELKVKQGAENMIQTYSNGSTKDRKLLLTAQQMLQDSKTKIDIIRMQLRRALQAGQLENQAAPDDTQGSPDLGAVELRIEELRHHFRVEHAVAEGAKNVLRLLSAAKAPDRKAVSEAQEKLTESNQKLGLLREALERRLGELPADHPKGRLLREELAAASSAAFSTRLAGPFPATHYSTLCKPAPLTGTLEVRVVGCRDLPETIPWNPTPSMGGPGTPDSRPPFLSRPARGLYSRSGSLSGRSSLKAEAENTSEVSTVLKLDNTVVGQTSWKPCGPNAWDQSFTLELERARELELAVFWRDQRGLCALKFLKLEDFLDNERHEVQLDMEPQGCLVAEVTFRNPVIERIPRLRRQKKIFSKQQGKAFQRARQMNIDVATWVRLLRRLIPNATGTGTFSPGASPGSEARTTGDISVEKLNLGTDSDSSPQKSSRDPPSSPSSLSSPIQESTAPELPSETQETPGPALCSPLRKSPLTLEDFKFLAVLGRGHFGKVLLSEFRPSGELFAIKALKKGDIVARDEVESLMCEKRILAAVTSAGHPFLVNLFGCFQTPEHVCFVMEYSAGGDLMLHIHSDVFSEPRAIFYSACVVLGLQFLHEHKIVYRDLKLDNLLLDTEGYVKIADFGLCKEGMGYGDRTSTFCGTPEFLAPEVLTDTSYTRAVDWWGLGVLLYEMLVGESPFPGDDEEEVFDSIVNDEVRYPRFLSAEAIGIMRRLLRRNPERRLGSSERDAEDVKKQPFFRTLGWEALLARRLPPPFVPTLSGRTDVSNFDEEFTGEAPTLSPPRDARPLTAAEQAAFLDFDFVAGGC

[8] = biological target: Ephrin type-A receptor 4 (Homo sapiens, UniProt P54764)
Sequence of Ephrin type-A receptor 4 (P54764 whole entry): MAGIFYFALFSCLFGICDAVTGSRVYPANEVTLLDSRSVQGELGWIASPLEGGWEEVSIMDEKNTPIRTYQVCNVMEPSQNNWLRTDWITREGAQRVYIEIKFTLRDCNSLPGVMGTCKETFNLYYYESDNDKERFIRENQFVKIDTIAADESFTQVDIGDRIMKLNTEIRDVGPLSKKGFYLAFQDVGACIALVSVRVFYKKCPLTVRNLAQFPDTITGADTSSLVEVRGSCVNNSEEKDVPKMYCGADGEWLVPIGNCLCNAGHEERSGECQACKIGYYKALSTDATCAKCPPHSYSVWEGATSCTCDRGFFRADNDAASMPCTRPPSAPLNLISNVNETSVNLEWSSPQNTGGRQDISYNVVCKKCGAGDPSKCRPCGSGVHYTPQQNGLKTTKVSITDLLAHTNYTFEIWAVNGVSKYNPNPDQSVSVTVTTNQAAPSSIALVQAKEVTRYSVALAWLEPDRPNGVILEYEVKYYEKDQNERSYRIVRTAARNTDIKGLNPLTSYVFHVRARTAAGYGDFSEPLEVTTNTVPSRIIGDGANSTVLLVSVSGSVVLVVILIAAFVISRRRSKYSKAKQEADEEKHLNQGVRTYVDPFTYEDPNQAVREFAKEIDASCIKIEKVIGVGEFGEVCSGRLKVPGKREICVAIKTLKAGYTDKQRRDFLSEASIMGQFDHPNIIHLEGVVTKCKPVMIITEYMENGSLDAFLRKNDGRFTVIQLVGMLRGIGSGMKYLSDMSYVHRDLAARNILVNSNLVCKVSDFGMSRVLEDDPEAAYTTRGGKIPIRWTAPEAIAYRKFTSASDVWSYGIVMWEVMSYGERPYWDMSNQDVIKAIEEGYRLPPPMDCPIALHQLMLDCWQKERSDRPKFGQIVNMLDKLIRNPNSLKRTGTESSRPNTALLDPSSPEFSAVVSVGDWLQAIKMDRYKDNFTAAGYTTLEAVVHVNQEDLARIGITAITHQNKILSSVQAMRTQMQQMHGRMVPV

[9] = biological target: T4, Septin-9 (Homo sapiens, UniProt Q9UHD8)
T4 sequence (Q9UHD8 whole entry): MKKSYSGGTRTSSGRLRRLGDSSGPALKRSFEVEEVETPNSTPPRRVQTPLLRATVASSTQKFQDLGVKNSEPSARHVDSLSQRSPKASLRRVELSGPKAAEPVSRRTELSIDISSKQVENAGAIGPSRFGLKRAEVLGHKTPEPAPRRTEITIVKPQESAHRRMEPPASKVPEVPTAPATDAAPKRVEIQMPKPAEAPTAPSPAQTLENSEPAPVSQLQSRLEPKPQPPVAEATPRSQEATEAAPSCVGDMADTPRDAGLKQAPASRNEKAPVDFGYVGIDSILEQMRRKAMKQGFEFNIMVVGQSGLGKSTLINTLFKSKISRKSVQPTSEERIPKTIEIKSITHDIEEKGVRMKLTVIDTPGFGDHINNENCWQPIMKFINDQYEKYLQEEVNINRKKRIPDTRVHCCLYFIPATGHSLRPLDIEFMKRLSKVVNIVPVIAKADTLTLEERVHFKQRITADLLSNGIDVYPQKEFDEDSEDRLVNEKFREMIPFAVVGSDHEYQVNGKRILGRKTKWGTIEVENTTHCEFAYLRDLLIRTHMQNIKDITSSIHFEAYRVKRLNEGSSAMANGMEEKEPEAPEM

[10] = biological target: cAMP-dependent protein kinase catalytic subunit alpha (Homo sapiens, UniProt P17612)
Note: in the data inactive means no Kd found up to 30 µM.

| Kd [1] | Kd [2] | Kd [3] | Kd [4] | Kd [5] | Kd [6] | Kd [7] | Kd [8] | Kd [9] | Kd [10] | SMILES |
| --- | --- | --- | --- | --- | --- | --- | --- | --- | --- | --- |
| > 30 µM (inactive) | > 30 µM (inactive) | > 30 µM (inactive) | > 30 µM (inactive) | > 30 µM (inactive) | > 30 µM (inactive) | > 30 µM (inactive) | > 30 µM (inactive) | > 30 µM (inactive) | > 30 µM (inactive) | Cn1cnc2c(F)c(Nc3ccc(Br)cc3F)c(C(=O)NOCCO)cc21 [BINIMETINIB] |
| > 30 µM (inactive) | > 30 µM (inactive) | > 30 µM (inactive) | > 30 µM (inactive) | > 30 µM (inactive) | > 30 µM (inactive) | > 30 µM (inactive) | > 30 µM (inactive) | > 30 µM (inactive) | > 30 µM (inactive) | CCn1c(C(=O)N(C2CC2)C2CC2)cc2c3c(ncn3C)c(Nc3cc(C)n(C)n3)nc21 [BMS-911543] |
| > 30 µM (inactive) | > 30 µM (inactive) | > 30 µM (inactive) | > 30 µM (inactive) | > 30 µM (inactive) | > 30 µM (inactive) | > 30 µM (inactive) | > 30 µM (inactive) | > 30 µM (inactive) | > 30 µM (inactive) | COc1c(OCCCN2CCOCC2)ccc2c1N=C(NC(=O)c1cnc(N)nc1)N1CCN=C21 [COPANLISIB] |
| > 30 µM (inactive) | > 30 µM (inactive) | > 30 µM (inactive) | > 30 µM (inactive) | > 30 µM (inactive) | > 30 µM (inactive) | > 30 µM (inactive) | > 30 µM (inactive) | > 30 µM (inactive) | > 30 µM (inactive) | COCC(=O)NC/C=C/c1ccc2ncnc(Nc3ccc(Oc4ccc(C)nc4)c(C)c3)c2c1 [CP-724714] |
| > 30 µM (inactive) | 0.016 µM (active) | > 30 µM (inactive) | > 30 µM (inactive) | > 30 µM (inactive) | > 30 µM (inactive) | > 30 µM (inactive) | > 30 µM (inactive) | > 30 µM (inactive) | > 30 µM (inactive) | Cc1cccc(-c2nn3c(c2-c2ccnc4ccc(C(N)=O)cc24)CCC3)n1 [GALUNISERTIB] |
| > 30 µM (inactive) | > 30 µM (inactive) | > 30 µM (inactive) | > 30 µM (inactive) | > 30 µM (inactive) | > 30 µM (inactive) | > 30 µM (inactive) | > 30 µM (inactive) | > 30 µM (inactive) | > 30 µM (inactive) | CNC(=O)c1cccc2cc(Oc3ccnc4cc(OCC5(N)CC5)c(OC)cc34)ccc12 [LUCITANIB] |
| > 30 µM (inactive) | > 30 µM (inactive) | > 30 µM (inactive) | > 30 µM (inactive) | > 30 µM (inactive) | > 30 µM (inactive) | > 30 µM (inactive) | 8.13 µM (active) | > 30 µM (inactive) | > 30 µM (inactive) | CNC(=O)c1nn(C)c2c1C(C)(C)Cc1cnc(Nc3ccc(N4CCN(C)CC4)cc3)nc1-2 [MILCICLIB] |

Second part, the molecule before the results:

| SMILES | Kd [1] | Kd [2] | Kd [3] | Kd [4] | Kd [5] | Kd [6] | Kd [7] | Kd [8] | Kd [9] | Kd [10] |
| --- | --- | --- | --- | --- | --- | --- | --- | --- | --- | --- |
| COc1cc2ncnc(Oc3cccc(NC(=O)Nc4cc(C(C)(C)C(F)(F)F)on4)c3)c2cc1OC [CEP-32496] | > 30 µM (inactive) | > 30 µM (inactive) | > 30 µM (inactive) | > 30 µM (inactive) | > 30 µM (inactive) | > 30 µM (inactive) | > 30 µM (inactive) | > 30 µM (inactive) | > 30 µM (inactive) | > 30 µM (inactive) |
| Cc1cc(Nc2ncc(Cl)c(Nc3ccccc3S(=O)(=O)C(C)C)n2)c(OC(C)C)cc1C1CCNCC1 [CERITINIB] | > 30 µM (inactive) | > 30 µM (inactive) | > 30 µM (inactive) | > 30 µM (inactive) | > 30 µM (inactive) | > 30 µM (inactive) | > 30 µM (inactive) | > 30 µM (inactive) | > 30 µM (inactive) | > 30 µM (inactive) |
| CCS(=O)(=O)N1CCN(c2ccc(Nc3ncc(C(N)=O)c(NC4CC4)n3)cc2)CC1 [Cerdulatinib Hydrochloride] | > 30 µM (inactive) | > 30 µM (inactive) | 0.029 µM | > 30 µM (inactive) | > 30 µM (inactive) | > 30 µM (inactive) | > 30 µM (inactive) | > 30 µM (inactive) | > 30 µM (inactive) | > 30 µM (inactive) |
| Cc1nc2cc(-n3ncc(C(=O)c4cc5ccccc5[nH]4)c3N)ccc2[nH]1 [FGFR INHIBITOR DEBIO 1347] | > 30 µM (inactive) | > 30 µM (inactive) | > 30 µM (inactive) | > 30 µM (inactive) | > 30 µM (inactive) | > 30 µM (inactive) | > 30 µM (inactive) | > 30 µM (inactive) | > 30 µM (inactive) | > 30 µM (inactive) |
| O=C(Nc1nc2cccc(-c3ccc(CN4CCS(=O)(=O)CC4)cc3)n2n1)C1CC1 [FILGOTINIB] | > 30 µM (inactive) | > 30 µM (inactive) | > 30 µM (inactive) | > 30 µM (inactive) | > 30 µM (inactive) | > 30 µM (inactive) | > 30 µM (inactive) | > 30 µM (inactive) | > 30 µM (inactive) | > 30 µM (inactive) |
| CCn1cc(-c2ccnc3[nH]c(-c4cccc(CN(C)C)c4)cc23)c(-c2ccc(NC(=O)N(C)C)cc2)n1 [GSK-1070916] | > 30 µM (inactive) | 1.21 µM (active) | > 30 µM (inactive) | > 30 µM (inactive) | > 30 µM (inactive) | > 30 µM (inactive) | > 30 µM (inactive) | > 30 µM (inactive) | > 30 µM (inactive) | > 30 µM (inactive) |
| COc1ccc(S(=O)(=O)N(C(C)=O)c2ccccc2/C=C/c2cc[n+]([O-])cc2)cc1 [HMN-214] | > 30 µM (inactive) | > 30 µM (inactive) | > 30 µM (inactive) | > 30 µM (inactive) | > 30 µM (inactive) | > 30 µM (inactive) | > 30 µM (inactive) | > 30 µM (inactive) | > 30 µM (inactive) | > 30 µM (inactive) |
